Experimental data: ChEMBL document CHEMBL3853314, “G-Protein-Coupled Receptor Kinase 2 (GRK2) Inhibitors: Current Trends and Future Perspectives” (J Med Chem, 2016)
Where a name gives a salt, the structure may show the parent alone. Peptide text beside a SMILES is read from it.

What was measured:
[1] = Inhibition of human PKA catalytic subunit
[2] = target: Beta-adrenergic receptor kinase 1 (Homo sapiens, UniProt P25098, S670A); assay: Inhibition of human GRK2 S670A mutant assessed as decrease in phosphorylation of light-activated bovine rod outer segments after 5 mins by SDS-PAGE analysis
Sequence of Beta-adrenergic receptor kinase 1 (Homo sapiens, UniProt P25098, S670A) (P25098 whole entry S670A): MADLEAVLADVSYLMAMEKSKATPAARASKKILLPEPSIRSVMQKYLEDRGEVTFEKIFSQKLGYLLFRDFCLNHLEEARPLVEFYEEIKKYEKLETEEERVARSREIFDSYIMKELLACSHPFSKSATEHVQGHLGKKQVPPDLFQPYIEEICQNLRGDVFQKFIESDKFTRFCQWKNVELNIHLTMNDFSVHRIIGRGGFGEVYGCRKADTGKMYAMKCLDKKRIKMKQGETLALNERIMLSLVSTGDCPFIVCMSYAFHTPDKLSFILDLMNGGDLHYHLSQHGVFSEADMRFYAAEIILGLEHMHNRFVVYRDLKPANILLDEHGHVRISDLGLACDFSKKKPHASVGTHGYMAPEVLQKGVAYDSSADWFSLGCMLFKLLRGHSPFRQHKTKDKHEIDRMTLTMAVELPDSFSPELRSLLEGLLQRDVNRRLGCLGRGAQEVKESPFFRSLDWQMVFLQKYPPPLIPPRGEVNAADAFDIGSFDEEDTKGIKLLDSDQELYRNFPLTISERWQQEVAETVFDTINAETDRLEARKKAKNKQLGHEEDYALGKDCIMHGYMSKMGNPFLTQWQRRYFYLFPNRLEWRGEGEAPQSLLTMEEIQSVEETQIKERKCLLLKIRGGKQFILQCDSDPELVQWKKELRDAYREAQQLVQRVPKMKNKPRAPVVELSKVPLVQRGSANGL

[3] = Inhibition of PKA (unknown origin) using LRRASLG as substrate incubated for 30 mins by ADP-Glo assay; design: species or system Homo sapiens
Rhodopsin kinase GRK1 = target: T1, Rhodopsin kinase GRK1 (Bos taurus, UniProt P28327); assay: Inhibition of bovine GRK1 (1 to 535 residues) assessed as decrease in phosphorylation of tubulin after 5 mins by SDS-PAGE analysis
T1 sequence (P28327 whole entry): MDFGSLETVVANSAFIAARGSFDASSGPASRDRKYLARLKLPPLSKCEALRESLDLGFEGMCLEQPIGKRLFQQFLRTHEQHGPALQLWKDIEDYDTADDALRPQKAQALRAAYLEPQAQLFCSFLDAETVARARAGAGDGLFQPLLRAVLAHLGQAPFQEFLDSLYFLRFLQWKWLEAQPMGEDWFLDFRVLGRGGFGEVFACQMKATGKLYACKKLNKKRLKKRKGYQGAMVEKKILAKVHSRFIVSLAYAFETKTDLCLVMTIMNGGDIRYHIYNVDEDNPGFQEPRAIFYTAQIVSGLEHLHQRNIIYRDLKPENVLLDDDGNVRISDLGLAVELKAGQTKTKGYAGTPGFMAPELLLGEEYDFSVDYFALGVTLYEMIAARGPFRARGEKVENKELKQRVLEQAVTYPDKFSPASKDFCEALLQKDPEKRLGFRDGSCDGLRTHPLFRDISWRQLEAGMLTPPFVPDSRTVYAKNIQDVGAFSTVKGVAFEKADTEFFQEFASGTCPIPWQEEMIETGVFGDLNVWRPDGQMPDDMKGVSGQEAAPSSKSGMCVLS

[4] = target: G protein-coupled receptor kinase 5 (Bos taurus, UniProt P43249); assay: Inhibition of bovine GRK5 assessed as decrease in phosphorylation of tubulin after 5 mins by SDS-PAGE analysis
Sequence of G protein-coupled receptor kinase 5 (Bos taurus, UniProt P43249) (P43249 whole entry): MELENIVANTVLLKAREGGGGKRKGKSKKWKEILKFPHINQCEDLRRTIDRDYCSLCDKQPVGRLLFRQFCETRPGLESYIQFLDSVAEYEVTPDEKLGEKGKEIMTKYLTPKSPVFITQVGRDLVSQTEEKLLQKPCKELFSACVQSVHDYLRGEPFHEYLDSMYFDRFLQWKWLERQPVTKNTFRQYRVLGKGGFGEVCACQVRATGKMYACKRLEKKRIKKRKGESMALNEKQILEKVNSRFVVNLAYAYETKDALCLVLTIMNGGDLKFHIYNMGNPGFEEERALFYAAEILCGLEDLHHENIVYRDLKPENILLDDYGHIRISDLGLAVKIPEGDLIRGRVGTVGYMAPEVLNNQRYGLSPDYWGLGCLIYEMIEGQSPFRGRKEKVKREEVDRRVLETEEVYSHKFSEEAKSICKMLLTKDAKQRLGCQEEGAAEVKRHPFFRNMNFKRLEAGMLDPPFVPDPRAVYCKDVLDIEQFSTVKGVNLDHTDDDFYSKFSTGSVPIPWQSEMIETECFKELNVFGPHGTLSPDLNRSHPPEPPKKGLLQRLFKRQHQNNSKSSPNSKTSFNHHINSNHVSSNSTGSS

[5] = target: T2, Beta-adrenergic receptor kinase 1 (Bos taurus, UniProt P21146); assay: Inhibition of bovine cerebral cortex GRK2 assessed as decrease in rhodopsin phosphorylation by SDS-PAGE analysis
T2 sequence (P21146 whole entry): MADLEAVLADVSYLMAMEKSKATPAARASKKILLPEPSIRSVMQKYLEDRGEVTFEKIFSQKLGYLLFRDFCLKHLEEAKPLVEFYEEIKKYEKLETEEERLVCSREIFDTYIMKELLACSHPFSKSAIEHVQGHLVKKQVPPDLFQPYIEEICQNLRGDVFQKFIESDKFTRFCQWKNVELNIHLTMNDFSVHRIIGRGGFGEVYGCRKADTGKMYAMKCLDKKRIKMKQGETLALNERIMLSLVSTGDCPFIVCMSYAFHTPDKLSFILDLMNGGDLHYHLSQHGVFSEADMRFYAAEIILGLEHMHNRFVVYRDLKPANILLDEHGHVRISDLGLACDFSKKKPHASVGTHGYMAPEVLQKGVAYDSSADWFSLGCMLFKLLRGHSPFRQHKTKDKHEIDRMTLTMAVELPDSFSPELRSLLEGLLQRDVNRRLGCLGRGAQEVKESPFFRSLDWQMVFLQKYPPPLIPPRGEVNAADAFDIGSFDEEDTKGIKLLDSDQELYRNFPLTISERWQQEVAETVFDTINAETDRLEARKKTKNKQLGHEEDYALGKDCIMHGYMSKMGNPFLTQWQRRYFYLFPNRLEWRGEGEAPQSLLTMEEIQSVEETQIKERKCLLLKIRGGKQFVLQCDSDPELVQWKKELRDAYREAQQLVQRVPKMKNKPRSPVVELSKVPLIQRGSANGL

[6] = target: Beta-adrenergic receptor kinase 1 (Bos taurus, UniProt P21146, S670A); assay: Inhibition of bovine GRK2 expressed in Sf9 insect cells assessed as decrease in phosphorylation of urea-washed bovine rod outer segments in presence of Gbetagamma subunits and [gamma-32P]-ATP after 5 to 60 mins by SDS-PAGE analysis
Sequence of Beta-adrenergic receptor kinase 1 (Bos taurus, UniProt P21146, S670A) (P21146 whole entry S670A): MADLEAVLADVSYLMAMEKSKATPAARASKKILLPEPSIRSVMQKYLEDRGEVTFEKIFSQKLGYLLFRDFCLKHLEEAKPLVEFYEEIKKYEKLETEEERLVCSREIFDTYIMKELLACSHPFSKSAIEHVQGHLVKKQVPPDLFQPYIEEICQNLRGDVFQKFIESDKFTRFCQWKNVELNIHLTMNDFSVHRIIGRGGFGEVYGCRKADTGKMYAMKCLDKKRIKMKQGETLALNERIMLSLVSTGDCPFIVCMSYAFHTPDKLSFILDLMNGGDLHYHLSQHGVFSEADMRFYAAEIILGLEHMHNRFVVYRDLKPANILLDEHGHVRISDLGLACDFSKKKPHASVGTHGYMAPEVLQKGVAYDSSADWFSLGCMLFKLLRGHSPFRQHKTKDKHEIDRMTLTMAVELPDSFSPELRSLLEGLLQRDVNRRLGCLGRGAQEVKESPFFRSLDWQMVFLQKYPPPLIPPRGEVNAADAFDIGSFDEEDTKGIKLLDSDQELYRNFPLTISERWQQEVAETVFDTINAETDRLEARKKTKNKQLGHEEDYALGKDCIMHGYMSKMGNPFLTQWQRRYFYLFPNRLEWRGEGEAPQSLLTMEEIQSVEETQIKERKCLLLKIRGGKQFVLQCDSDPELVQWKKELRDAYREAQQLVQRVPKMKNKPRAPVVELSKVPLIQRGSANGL

[7] = target: T3, G protein-coupled receptor kinase 3 (Bos taurus, UniProt P26818); assay: Inhibition of recombinant bovine GRK3 expressed in Sf9 insect cells assessed as decrease in phosphorylation of urea-washed bovine rod outer segments in presence of Gbetagamma subunits and [gamma-32P]-ATP after 5 to 60 mins by SDS-PAGE analysis
T3 sequence (P26818 whole entry): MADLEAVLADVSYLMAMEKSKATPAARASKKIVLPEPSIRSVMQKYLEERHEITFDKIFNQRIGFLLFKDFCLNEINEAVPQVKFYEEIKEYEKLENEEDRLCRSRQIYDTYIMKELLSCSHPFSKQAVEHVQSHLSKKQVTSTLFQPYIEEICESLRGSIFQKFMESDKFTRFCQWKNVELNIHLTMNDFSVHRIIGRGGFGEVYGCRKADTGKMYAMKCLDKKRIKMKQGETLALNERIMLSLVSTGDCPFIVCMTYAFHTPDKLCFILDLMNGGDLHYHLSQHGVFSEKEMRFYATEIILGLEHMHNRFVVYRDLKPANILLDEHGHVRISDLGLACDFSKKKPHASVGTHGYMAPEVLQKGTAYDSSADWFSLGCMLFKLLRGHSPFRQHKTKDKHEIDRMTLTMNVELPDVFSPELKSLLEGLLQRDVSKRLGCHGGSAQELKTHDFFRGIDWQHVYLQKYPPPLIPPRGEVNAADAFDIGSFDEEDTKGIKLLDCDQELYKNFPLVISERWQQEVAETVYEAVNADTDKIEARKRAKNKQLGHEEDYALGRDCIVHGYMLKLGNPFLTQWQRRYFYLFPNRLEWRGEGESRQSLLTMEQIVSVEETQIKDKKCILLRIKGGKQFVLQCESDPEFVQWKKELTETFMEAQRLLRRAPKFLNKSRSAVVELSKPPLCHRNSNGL

[8] = target: G protein-coupled receptor kinase 5 (Homo sapiens, UniProt P34947); assay: Inhibition of recombinant human GRK5 expressed in Sf9 insect cells assessed as decrease in phosphorylation of urea-washed bovine rod outer segments in presence of Gbetagamma subunits and [gamma-32P]-ATP after 5 to 60 mins by SDS-PAGE analysis
Sequence of G protein-coupled receptor kinase 5 (Homo sapiens, UniProt P34947) (P34947 whole entry): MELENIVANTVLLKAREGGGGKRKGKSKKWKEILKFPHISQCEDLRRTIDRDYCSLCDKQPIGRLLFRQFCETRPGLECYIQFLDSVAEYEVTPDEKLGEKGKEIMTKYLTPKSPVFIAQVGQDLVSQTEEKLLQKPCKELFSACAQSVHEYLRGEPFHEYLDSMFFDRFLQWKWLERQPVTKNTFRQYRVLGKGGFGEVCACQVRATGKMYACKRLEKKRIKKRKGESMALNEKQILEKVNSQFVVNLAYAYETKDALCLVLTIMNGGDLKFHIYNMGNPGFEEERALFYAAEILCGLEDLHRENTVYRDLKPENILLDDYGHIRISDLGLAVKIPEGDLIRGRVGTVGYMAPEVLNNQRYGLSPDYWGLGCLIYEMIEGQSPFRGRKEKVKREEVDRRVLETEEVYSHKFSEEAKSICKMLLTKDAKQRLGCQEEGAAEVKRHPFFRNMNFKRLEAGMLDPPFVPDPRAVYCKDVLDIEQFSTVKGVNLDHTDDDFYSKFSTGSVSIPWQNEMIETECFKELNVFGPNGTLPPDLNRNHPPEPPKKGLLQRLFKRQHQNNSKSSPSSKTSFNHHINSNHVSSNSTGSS

[9] = target: Protein kinase C alpha type (Homo sapiens, UniProt P17252); assay: Inhibition of recombinant full-length human N-terminal GST tagged PKCalpha expressed in Baculovirus infected Sf9 insect cells using KRREILSRRPSYR as substrate incubated for 30 mins by ADP-Glo assay

IC50 [3]	IC50 [6]	IC50 [7]	IC50 [8]	Structure (SMILES)	also measured
				Cn1c(CNc2cccc(C(=O)NCc3ccccc3C(F)(F)F)c2)nnc1-c1ccncc1	IC50 [1]: > 2000 nM
				O=C1NCc2ccc(OC[C@@H]3CNCC[C@H]3c3ccc(F)cc3)cc21	IC50 [2]: 6.3 µM
200 µM				CC1=C(C(=O)Nc2ccc3[nH]ncc3c2)C(c2ccc(F)cc2)N=C(c2ccc(C(F)(F)F)cc2)N1 (configuration not stated)	IC50 (Rhodopsin kinase GRK1): > 1 mM; IC50 [4]: 631 µM
				O=S(=O)(O)O[C@H]1[C@H](OS(=O)(=O)O)[C@@H](OS(=O)(=O)O)[C@H](OS(=O)(=O)O)[C@@H](OS(=O)(=O)O)[C@H]1OS(=O)(=O)O	IC50 [5]: 0.0135 mM
				O=P(O)(O)O[C@@H]1[C@H](O)[C@H](O)[C@@H](O)[C@H](O)[C@H]1O	IC50 [5]: 3.6 mM
	0.6 µM	1.5 µM	1.6 µM	CC[C@H](C)[C@H](NC(=O)[C@H](Cc1ccccc1)NC(=O)[C@H](Cc1ccc(O)cc1)NC(=O)[C@H](CC(N)=O)NC(=O)[C@@H](NC(=O)[C@@H](NC(=O)[C@@H](NC(=O)[C@H](CCC(N)=O)NC(=O)[C@H](CC(C)C)NC(=O)[C@H](CCCNC(=N)N)NC(=O)[C@H](CCC(=O)O)NC(=O)[C@H](Cc1ccccc1)NC(=O)[C@H](CCCCN)NC(=O)[C@H](C)N)[C@@H](C)O)C(C)C)[C@@H](C)O)C(=O)N[C@H](C(=O)N[C@@H](CO)C(=O)N[C@@H](CCC(=O)O)C(=O)O)[C@@H](C)O (H-AKFERLQTVTNYFITSE-OH)	
	32.2 µM	55.5 µM	9.4 µM	CC[C@H](C)[C@H](NC(=O)[C@H](Cc1ccccc1)NC(=O)[C@H](Cc1ccc(O)cc1)NC(=O)[C@H](CC(N)=O)NC(=O)[C@@H](NC(=O)[C@@H](NC(=O)[C@@H](NC(=O)[C@H](CCC(N)=O)NC(=O)[C@H](CC(C)C)NC(=O)[C@H](CCCNC(=N)N)NC(=O)[C@H](CCC(=O)O)NC(=O)[C@H](Cc1ccccc1)NC(=O)[C@H](CCCCN)NC(=O)[C@H](C)N)[C@@H](C)O)C(C)C)[C@@H](C)O)C(=O)N[C@H](C(=O)N[C@@H](CO)C(=O)N[C@@H](CCCCN)C(=O)O)[C@@H](C)O (H-AKFERLQTVTNYFITSK-OH)	
	52.2 µM	22.6 µM	7.4 µM	CC[C@H](C)[C@H](NC(=O)[C@H](C)NC(=O)[C@@H](NC(=O)[C@@H](N)CCC(=O)O)[C@@H](C)O)C(=O)N[C@@H](C)C(=O)N[C@@H](CCCCN)C(=O)N[C@@H](Cc1ccccc1)C(=O)N[C@@H](CCC(=O)O)C(=O)N[C@@H](CCCNC(=N)N)C(=O)N[C@@H](CC(C)C)C(=O)N[C@@H](CCC(N)=O)C(=O)N[C@H](C(=O)N[C@H](C(=O)N[C@H](C(=O)N[C@@H](CC(N)=O)C(=O)N[C@@H](Cc1ccc(O)cc1)C(=O)N[C@@H](Cc1ccccc1)C(=O)N[C@H](C(=O)N[C@H](C(=O)N[C@@H](CO)C(=O)N[C@@H](CCCCN)C(=O)O)[C@@H](C)O)[C@@H](C)CC)[C@@H](C)O)C(C)C)[C@@H](C)O (H-ETAIAKFERLQTVTNYFITSK-OH)	
	5.6 µM	11.6 µM	2.1 µM	CC[C@H](C)[C@H](NC(=O)[C@H](C)NC(=O)[C@@H](NC(=O)[C@@H](N)CCCCN)[C@@H](C)O)C(=O)N[C@@H](C)C(=O)N[C@@H](CCCCN)C(=O)N[C@@H](Cc1ccccc1)C(=O)N[C@@H](CCC(=O)O)C(=O)N[C@@H](CCCNC(=N)N)C(=O)N[C@@H](CC(C)C)C(=O)N[C@@H](CCC(N)=O)C(=O)N[C@H](C(=O)N[C@H](C(=O)N[C@H](C(=O)N[C@@H](CC(N)=O)C(=O)O)[C@@H](C)O)C(C)C)[C@@H](C)O (H-KTAIAKFERLQTVTN-OH)	
	4.4 µM	6.1 µM	3.9 µM	CC[C@H](C)[C@H](NC(=O)[C@H](C)NC(=O)[C@@H](NC(=O)[C@@H](N)CCCCN)[C@@H](C)O)C(=O)N[C@@H](C)C(=O)N[C@@H](CCCCN)C(=O)N[C@@H](Cc1ccccc1)C(=O)N[C@@H](CCC(=O)O)C(=O)N[C@@H](CCCNC(=N)N)C(=O)N[C@@H](CC(C)C)C(=O)N[C@@H](CCC(N)=O)C(=O)N[C@H](C(=O)N[C@H](C(=O)N[C@H](C(=O)N[C@@H](CC(N)=O)C(=O)N[C@@H](Cc1ccc(O)cc1)C(=O)N[C@@H](Cc1ccccc1)C(=O)N[C@H](C(=O)N[C@H](C(=O)N[C@@H](CO)C(=O)N[C@@H](CCC(=O)O)C(=O)O)[C@@H](C)O)[C@@H](C)CC)[C@@H](C)O)C(C)C)[C@@H](C)O (H-KTAIAKFERLQTVTNYFITSE-OH)	
	36.5 µM	30.4 µM	61.3 µM	CC[C@H](C)[C@H](NC(=O)[C@H](C)NC(=O)[C@@H](NC(=O)[C@@H](N)CCCCN)[C@@H](C)O)C(=O)N[C@@H](C)C(=O)N[C@@H](CCCCN)C(=O)N[C@@H](Cc1ccccc1)C(=O)N[C@@H](CCC(=O)O)C(=O)N[C@@H](CCCNC(=N)N)C(=O)N[C@@H](CC(C)C)C(=O)N[C@@H](CCC(N)=O)C(=O)N[C@H](C(=O)N[C@H](C(=O)N[C@H](C(=O)N[C@@H](CC(N)=O)C(=O)N[C@@H](Cc1ccc(O)cc1)C(=O)N[C@@H](Cc1ccccc1)C(=O)N[C@H](C(=O)N[C@H](C(=O)N[C@@H](CO)C(=O)N[C@@H](CCCCN)C(=O)O)[C@@H](C)O)[C@@H](C)CC)[C@@H](C)O)C(C)C)[C@@H](C)O (H-KTAIAKFERLQTVTNYFITSK-OH)	
> 500 µM				CC1=C(C(=O)Nc2ccc3[nH]ncc3c2)C(c2ccc(F)cc2)NC(=O)N1 (configuration not stated) [GSK-180736A]	
50.1 µM				CC1=C(C(=O)Nc2ccc3[nH]ncc3c2)C(c2ccc3ccccc3c2)CC(=O)N1 (configuration not stated) [GSK-270822A]	
63.1 µM				CC1=C(C(=O)Nc2ccc3[nH]ncc3c2)C(c2ccc(Cl)c(Cl)c2)CC(=O)N1 (configuration not stated) [GSK-299115A]	
12.6 µM				CC1=C(C(=O)Nc2cc(Cl)c3[nH]ncc3c2)C(c2ccc(C(F)(F)F)cc2)CC(=O)N1 (configuration not stated) [GSK-466317A]	IC50 (Rhodopsin kinase GRK1): 1 mM
> 45 µM				Fc1ccc([C@@H]2CCNC[C@H]2COc2ccc3c(c2)OCO3)cc1 [PAROXETINE HYDROCHLORIDE]	IC50 [9]: 220 µM
